Patent US5717095A, “Nucleotide analogs” (Gilead Sciences, Inc., priority 1996, dated 1998)
Entries after “also recorded” stand apart in the source; their conditions may differ.

How the values were obtained:
[1] = system: herpes simplex virus, type 1 or 2 (HSV-1 and -2); conditions: cited from earlier work
[2] = system: varicella zoster virus (VZV); conditions: cited from earlier work
[3] = system: adenovirus; conditions: cited from earlier work
[4] = system: vaccinia virus; conditions: cited from earlier work
[5] = system: thymidine kinase-deficient (TK^-) mutants of herpes simplex virus; conditions: TK^- HSV mutants; cited from earlier work
[6] = system: HCMV; conditions: cited from earlier work
[7] = system: phocid herpesvirus type 1 (seal herpesvirus, SeHV); conditions: cited from earlier work
[8] = system: simian herpesvirus type 1 (SHV-1), or pseudorabies virus or Aujeszky's disease virus; conditions: SHV-1 / pseudorabies virus; cited from earlier work
[9] = system: bovid herpesvirus type 1 (infectious bovine rhinotracheitis virus, BHV-1); conditions: cited from earlier work
[10] = system: equid herpesvirus type 1 (equine abortion virus, EHV-1); conditions: cited from earlier work
[11] = system: African swine fever (ASF) virus; conditions: cited from earlier work
[12] = system: retroviruses such as murine sarcoma virus (MSV); conditions: cited from earlier work
[13] = system: herpes simplex virus type 1; conditions: mice and rabbits, local and systemic HSV-1 infections, including herpetic keratitis caused by acyclovir-type-drug-resistant TK^- mutant; cited from earlier work
[14] = system: intraperitoneal P388 leukemia; conditions: murine; cited from earlier work
[15] = system: HCMV; test: Activity against HCMV in tissue culture (NHDF cell line); assay type: cell-based; conditions: Human betaherpesvirus 5
Source text: The title compound was synthesized using N^4 -benzoyl HPMPC diethyl ester tritylated at the hydroxyl group as a starting material. The starting material was detritylated using acetic acid and then converted to N^4 -benzoyl HPMPC using TMSBr. The resulting compound was converted to N^4 -benzoyl cHPMPC using DCC and morpholine in pyridine.

[16] = system: human cytomegalovirus (HCMV); conditions: in both humans and animals; cited from earlier work
[17] = system: HSV-2 (strain 414-92); test: Inhibition of HSV-2 mediated cell killing in MA 104 cells (crystal violet); assay type: cell-based; conditions: Human alphaherpesvirus 2, MA104, 72 h, read-out: HSV-2 IC50, concentration that inhibits cell killing mediated by HSV-2 by 50%
Description: (§1) Compounds were individually tested for activity against HSV-1 and/or HSV-2. HSV-2 (strain 414-92) was tested using MA 104 cells in the following assay protocol. 96-Well plates were seeded with 1×10^4 MA 104 cells per well using 200 μL minimal essential medium (MEM) containing 10% calf serum per well, and incubated overnight at 37° C. The compounds were dissolved in MEM Earle's Salts without serum. The medium was removed by aspiration and 100 μL MEM Earle's Salts without serum was added to the wells. Serial 3-fold dilutions of the compounds were prepared by serial transfer of 50 μL of medium from wells containing compound to wells lacking compound. The plates were incubated 15 minutes at 37° C. followed by addition of 100 PFU/well of virus in MEM Earle's Salts with 2% fetal bovine serum. The plates were then incubated at 37° C. for three days until approximately 90% of the cells in virus infected control wells containing no compound were killed. Following incubation, medium was aspirated and the wells were washed with sterile PBS. 100 μL 0.5% crystal violet in 20% methanol was then added to the wells for 5 minutes, aspirated and the wells were washed two or three times with distilled water. 200 μL of 0.01 N HCl was added to the wells and the absorbance of each well at 595 nm was determined. The results, shown in Table 6, were expressed as the IC50, the concentration (μM) that inhibits cell killing mediated by HSV-2 by 50%. […] The toxicity of the compounds were expressed as the CC50, the concentration that kills 50% of uninfected cells.

[18] = system: KOS strain of HSV-1; test: Activity against KOS strain of HSV-1 in VERO cells; assay type: cell-based; conditions: Human alphaherpesvirus 1, Vero, read-out: HSV-1 EC50, concentration that inhibits cell killing by 50%
Description: The compounds were also tested for activity against the KOS strain of HSV-1 in VERO cells. The results, shown in Table 7, were expressed as the EC50, the concentration (μM) that inhibits cell killing mediated by HSV-2 by 50%.

[19] = system: HSV II; test: Inhibition of cytopathic effects by HSV II in MA 104 cells (XTT); assay type: cell-based, HSV-2; conditions: for IC50: Human alphaherpesvirus 2, MA104
Description: as §1, with “100 μL 0.5% crystal violet in 20% methanol was then added to the wells for 5 minutes, aspirated and the wells were washed two or three times with distilled water. 200 μL of 0.01 N HCl was added to the wells and the absorbance of each well at 595 nm was determined.” left out

[20] = in vitro; assay type: cell-based; conditions: monkey, ma 104 cells
Description: Compounds were individually tested for activity against HSV-1 and/or HSV-2. HSV-2 (strain 414-92) was tested using MA 104 cells in the following assay protocol. 96-Well plates were seeded with 1×10^4 MA 104 cells per well using 200 μL minimal essential medium (MEM) containing 10% calf serum per well, and incubated overnight at 37° C. The compounds were dissolved in MEM Earle's Salts without serum. The medium was removed by aspiration and 100 μL MEM Earle's Salts without serum was added to the wells. Serial 3-fold dilutions of the compounds were prepared by serial transfer of 50 μL of medium from wells containing compound to wells lacking compound. The plates were incubated 15 minutes at 37° C. followed by addition of 100 PFU/well of virus in MEM Earle's Salts with 2% fetal bovine serum. The plates were then incubated at 37° C. for three days until approximately 90% of the cells in virus infected control wells containing no compound were killed. Following incubation, medium was aspirated and the wells were washed with sterile PBS. 100 μL 0.5% crystal violet in 20% methanol was then added to the wells for 5 minutes, aspirated and the wells were washed two or three times with distilled water. 200 μL of 0.01 N HCl was added to the wells and the absorbance of each well at 595 nm was determined. […]

[21] = rhesus monkey, in vivo; cited from earlier work
[22] = in vivo; conditions: rhesus monkey, po
[23] = Conversion in rat intestinal homogenate; assay type: in vitro ADME
Source text: (§2) The cHPMPC pivaloyloxymethyl ester synthesis yields a racemic mixture at the phosphorus atom. The mixture was separated by HPLC into the two isomers which were then exposed to an rat intestinal homogenate or to a rat intestinal wash.

[24] = Conversion in rat intestinal wash; assay type: in vitro ADME; conditions: both phosphorus isomers
Source text: as §2

For `Nc1ncnc2c1ncn2C[C@@H](CO)OCP(=O)(O)O` [(S)-HPMPA], the antiviral activity [1] is listed as “active; also recorded: potent and selective activity”, the antiviral activity [2] is listed as “active; also recorded: potent and selective activity” and the antiviral activity [3] is listed as “active; also recorded: potent and selective activity”. For the same compound, the antiviral activity [4] was “active; also recorded: potent and selective activity”, the antiviral activity [5] was “potent and selective activity” and the antiviral activity [6] was “potent and selective activity”. For the same compound, the antiviral activity [7] was “potent and selective activity”, the antiviral activity [8] was “potent and selective activity” and the antiviral activity [9] was “potent and selective activity”. For the same compound, the antiviral activity [10] was “potent and selective activity”, the antiviral activity [11] was “potent and selective activity” and the antiviral activity [12] was “potent and selective activity”. For the same compound, the “in vivo antiviral effect” value [13] was “effective”.

In the case of `Nc1ncnc2c1ncn2CC(CO)OCP(=O)(O)O` (centres unmarked) [HPMPA], the antitumor activity [14] is given as “active”.

For `Nc1ccn(C[C@@H](CO)OCP(=O)(O)O)c(=O)n1` [HPMPC], the IC50 [15] is listed as 0.4 µM, the antiviral activity [1] is listed as “active” and the antiviral activity [16] is listed as “active”.

`Nc1ncnc2c1ncn2CCOCP(=O)(O)O` [PMEA, reference compound] gave an IC50 [17] of 21 µM, an EC50 [18] of 138 µM and an IC50 [19] of 19.3 µM. For the same compound, the CC50 [20] was 2000 µM and the Oral bioavailability [21] was 2-4%.

With `CC(C)(C)C(=O)OCOP(=O)(COCCn1cnc2c(N)ncnc21)OCOC(=O)C(C)(C)C` [bis(POM)PMEA, reference compound] the “activity (inhibition of cytopathic effects)” value [19] was “active”, the IC50 [19] was 0.5 µM and the CC50 [20] was greater than 10 µM. For the same compound, the bioavailability [22] was roughly 25%.

In the case of `CC(C)(C)C(=O)OCOP1(=O)CO[C@@H](Cn2ccc(N)nc2=O)CO1` (some centres unmarked) [cHPMPC pivaloyloxymethyl ester], the “metabolic conversion in homogenate” value ([23]; one of the two phosphorus isomers) is reported as “converted to cHPMPC”, the “metabolic conversion in homogenate” value ([23]; the other phosphorus isomer) is reported as “converted to HPMPC pivaloyloxymethyl monoester” and the “conversion in intestinal wash” value [24] is reported as “converted to HPMPC pivaloyloxymethyl monoester”.
